Marks after values point to notes of the source that are not given here.
Columns and labels:
human V2 receptor = biological target: T1, human V2 receptor (Homo sapiens, UniProt P30518); experiment: In vitro recombinant vasopressin receptor binding assay (3H-arginine vasopressin displacement), V2; details: cloned human V2 receptor membranes, HEK-293 cells
T1 construct: expressed in transfected cells; host or cells: HEK-293
Description: (§1) In Vitro Recombinant Vasopressin Receptor Binding Assay
(§2) Compounds were assessed for their ability to displace ^3H-arginine vasopressin from the human V1a or V2 receptor in HEK-293 cells. Assay buffer is 50 mM Tris-Cl, 5 mM MgCl2, 0.1% BSA (pH 7.5) containing 5 μg/mL of aprotinin, leupeptin, pepstatin, 50 μg/mL bacitracin, and 1 mM Pefabloc. ^3H-vasopressin is ^3H-arginine-8-vasopressin (68.5 Ci/mmol, final concentration in assay is 0.65-0.75 nM). Into wells of 96-well round bottom polypropylene plates were added buffer, test compound, membrane (containing cloned human V1a or V2 receptor) and ^3H-vasopressin. The reaction plates were allowed to sit at room temperature for one hour. The samples were filtered through Unifilter GF/C plates (presoaked in 0.3 polyethyleneimine). The plates were washed 5 times with cold physiological saline containing 0.05% Tween 20. After drying, the bottom of the filter plates were sealed and 0.025 mL of Microscint-20 was added to each filter. The top of the plate was sealed, and the plate was counted.

[1] = system: conscious hydrated male rats; experiment: Diuresis study, acute diuretic effect after oral administration; format: in vivo, Sprague Dawley rats; details: 4 hours urine collection, mean±SE
Description: The acute diuretic effect of compounds of the invention after oral administration was tested according to the procedure described herein.
Mature male Sprague Dawley rats, 200-300 gms, from Charles River Labs Inc. were housed one rat per cage, in a rodent room. Room temperature was maintained at […] and humidity at 30-70%. Room lighting was on a 12 hrs light/12 hrs dark cycle. Rats were fed laboratory rodent diet, #5001 (supplied from Purina Mills, St.Louis, Mo. via W. F. Fisher, Bound Brook, N.J.).
Four different concentrations of test compound were prepared. For each dose, compound was prepared as a uniform suspension in 0.5% methylcellulose vehicle using a water bath sonicator to ensure uniform suspension and dosed in a volume of 2 ml/kg.
All animals were fasted for 18 hours and weights were taken and recorded for each animal. Animals were dosed orally with drug via gavage needle. After oral dosing, animals were placed into metabolism racks for 4 hours. The urine was collected and the volume measured. Aliquots of 0.5 mL were stored at 4° C. for later analysis.
Each value represents the mean±SE. *Data has a p value of <0.05 versus vehicle using Dunnett's Multiple Comparison Test. **Data has a p value of <0.01 versus vehicle. ^aNumber of animals in parentheses represent the number of animals providing osmolality values (if different than the number of animals providing urine volume values).

human V1a receptor = biological target: T2, human V1a receptor (Homo sapiens, UniProt P37288); experiment: In vitro recombinant vasopressin receptor binding assay (3H-arginine vasopressin displacement), V1a; details: cloned human V1a receptor membranes, HEK-293 cells
T2 construct: expressed in transfected cells; host or cells: HEK-293
T2 sequence (P37288 whole entry): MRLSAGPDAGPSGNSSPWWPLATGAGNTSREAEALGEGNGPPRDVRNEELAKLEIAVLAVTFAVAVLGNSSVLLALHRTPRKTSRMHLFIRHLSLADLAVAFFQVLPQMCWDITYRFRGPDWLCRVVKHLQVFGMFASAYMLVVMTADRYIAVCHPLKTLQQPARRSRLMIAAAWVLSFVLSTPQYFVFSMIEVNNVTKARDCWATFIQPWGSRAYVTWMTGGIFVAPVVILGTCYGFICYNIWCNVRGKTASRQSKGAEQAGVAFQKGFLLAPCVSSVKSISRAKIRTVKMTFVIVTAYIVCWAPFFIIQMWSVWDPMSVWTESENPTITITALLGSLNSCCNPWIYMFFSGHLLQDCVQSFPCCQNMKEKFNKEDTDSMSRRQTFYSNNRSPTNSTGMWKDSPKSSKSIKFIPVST
Description: as §1, §2

Molecule	IC50 (human V2 receptor) [nM]	IC50 (human V1a receptor) [nM]	also measured
O=C(Nc1ccc(C(=O)N2C[C@@H]3C4CCC(C4)N3Cc3ccccc32)c(Cl)c1)c1ccccc1-c1ccccc1 (mixture of isomers) [Compound 3, N-[4-[[(6aS)-6,6a,7,8,9,10-hexahydro-7,10-methanopyrido[2,1-c][1,4]benzodiazepin-5(12H)-yl]carbonyl]-3-chlorophenyl]-[1,1′-biphenyl]-2-carboxamide]	15	–	–
O=C(Nc1ccc(C(=O)N2C[C@H]3C4CCC(C4)N3Cc3ccccc32)c(Cl)c1)c1ccccc1-c1ccccc1 (stereo partly drawn) [Compound 5, N-[4-[[(6aR)-6,6a,7,8,9,10-hexahydro-7,10-methanopyrido[2,1-c][1,4]benzodiazepin-5(12H)-yl]carbonyl]-3-chlorophenyl]-[1,1′-biphenyl]-2-carboxamide]	15	–	Urine Osmolality ([1]; 0.3 mg/Kg oral): 408 ± 37* mOsm/kg; Urine Volume ([1]; 0.3 mg/Kg oral): 1.4 ± 0.1* mL; Urine Osmolality ([1]; 1.0 mg/Kg oral): 303 ± 29* mOsm/kg; Urine Volume ([1]; 1.0 mg/Kg oral): 3.4 ± 0.4* mL; Urine Osmolality ([1]; 3.0 mg/Kg oral): 238 ± 18* mOsm/kg; Urine Volume ([1]; 3.0 mg/Kg oral): 9.4 ± 1.1* mL; Urine Osmolality ([1]; 10 mg/Kg oral): 172 ± 9* mOsm/kg; Urine Volume ([1]; 10 mg/Kg oral): 19.5 ± 1.4* mL
O=C(Nc1ccc(C(=O)N2C[C@@H]3C4CCC(C4)N3Cc3ccccc32)c(Cl)c1)c1ccccc1-c1ccccc1 (stereo partly drawn) [Compound 4, N-[4-[[(6aS)-6,6a,7,8,9,10-hexahydro-7,10-methanopyrido[2,1-c][1,4]benzodiazepin-5(12H)-yl]carbonyl]-3-chlorophenyl]-[1,1′-biphenyl]-2-carboxamide]	4	24	Urine Osmolality ([1]; 0.3 mg/Kg oral): 444 ± 79* mOsm/kg; Urine Volume ([1]; 0.3 mg/Kg oral): 2.5 ± 0.3 mL; Urine Osmolality ([1]; 1.0 mg/Kg oral): 299 ± 34* mOsm/kg; Urine Volume ([1]; 1.0 mg/Kg oral): 6.0 ± 0.7* mL; Urine Osmolality ([1]; 3.0 mg/Kg oral): 180 ± 9* mOsm/kg; Urine Volume ([1]; 3.0 mg/Kg oral): 15.1 ± 1.4* mL; Urine Osmolality ([1]; 10 mg/Kg oral): 138 ± 11* mOsm/kg; Urine Volume ([1]; 10 mg/Kg oral): 29.9 ± 2.0* mL
Cc1ccc(-c2ccccc2C(=O)Nc2ccc(C(=O)N3C[C@@H]4C5CCC(C5)N4Cc4cc(Cl)ccc43)cc2)cc1 (stereo partly drawn) [Compound 6, N-[4-[[(6aS)-2-chloro-6,6a,7,8,9,10-hexahydro-7,10-methanopyrido[2,1-c][1,4]benzodiazepin-5(12H)-yl]carbonyl]phenyl]-4′-methyl-[1,1′-biphenyl]-2-carboxamide]	5	24	Urine Osmolality ([1]; 1.0 mg/Kg oral): 387 ± 15 mOsm/kg; Urine Volume ([1]; 1.0 mg/Kg oral): 2.9 ± 0.2 mL; Urine Osmolality ([1]; 3.0 mg/Kg oral): 226 ± 9** mOsm/kg; Urine Volume ([1]; 3.0 mg/Kg oral): 5.8 ± 0.5** mL; Urine Osmolality ([1]; 10 mg/Kg oral): 159 ± 9** mOsm/kg; Urine Volume ([1]; 10 mg/Kg oral): 17.8 ± 1.3** mL
O=C(Nc1ccc(C(=O)N2CC3C4CCC(CC4)N3Cc3ccccc32)c(Cl)c1)c1ccccc1-c1ccccc1 (racemic) [Compound 2, N-[4-[(6,6a,7,8,9,10-hexahydro-7,10-ethanopyrido[2,1-c][1,4]benzodiazepin-5(12H)-yl)carbonyl]-3-chlorophenyl]-[1,1′-biphenyl]-2-carboxamide]	4	–	–
Cc1ccc(-c2ccccc2C(=O)Nc2ccc(C(=O)N3C[C@@H]4C5CCC(C5)N4Cc4ccccc43)c(Cl)c2)cc1 (stereo partly drawn) [Compound 7, N-[4-[[(6aS)-6,6a,7,8,9,10-hexahydro-7,10-methanopyrido[2,1-c][1,4]benzodiazepin-5(12H)-yl]carbonyl]-3-chlorophenyl]-4′-methyl-[1,1′-biphenyl]-2-carboxamide]	3	35	–
Cc1ccc(F)cc1C(=O)Nc1ccc(C(=O)N2C[C@@H]3C4CCC(CC4)N3Cc3ccccc32)c(Cl)c1 [Compound 14, N-[4-[[(6aS)-6,6a,7,8,9,10-hexahydro-7,10-ethanopyrido[2,1-c][1,4]benzodiazepin-5(12H)-yl]carbonyl]-3-chlorophenyl]-5-fluoro-2-methyl-benzamide]	19	–	–
O=C(Nc1ccc(C(=O)N2C[C@@H]3C4CCC(C4)N3Cc3cc(Cl)ccc32)cc1)c1ccccc1Cl (stereo partly drawn) [Compound 11, N-[4-[[(6aS)-2-chloro-6,6a,7,8,9,10-hexahydro-7,10-methanopyrido[2,1-c][1,4]benzodiazepin-5(12H)-yl]carbonyl]phenyl]-2-chloro-benzamide]	7	4	–
Cc1ccc(-c2ccccc2C(=O)Nc2ccc(C(=O)N3C[C@@H]4C5CCC(CC5)N4Cc4cc(Cl)ccc43)cc2)cc1 [Compound 16, N-[4-[[(6aS)-2-chloro-6,6a,7,8,9,10-hexahydro-7,10-ethanopyrido[2,1-c][1,4]benzodiazepin-5(12H)-yl]carbonyl]phenyl]-4′-methyl-[1,1′-biphenyl]-2-carboxamide]	72	59	–
N-[4-[[(6aS)-2-chloro-6,6a,7,8,9,10-hexahydro-7,10-methanopyrido[2,1-c][1,4]benzodiazepin-5(12H)-yl]carbonyl]-3-chlorophenyl]-2-(trifluoromethyl)-benzamide [Compound 12]	15	10	–
O=C(Nc1ccc(C(=O)N2C[C@@H]3C4CCC(C4)N3Cc3cc(Cl)ccc32)cc1)c1ccccc1-c1ccc(F)cc1 (stereo partly drawn) [Compound 9, N-[4-[[(6aS)-2-chloro-6,6a,7,8,9,10-hexahydro-7,10-methanopyrido[2,1-c][1,4]benzodiazepin-5(12H)-yl]carbonyl]phenyl]-4′-fluoro-[1,1′-biphenyl]-2-carboxamide]	26	68	–
O=C(Nc1ccc(C(=O)N2C[C@@H]3C4CCC(CC4)N3Cc3cc(Cl)ccc32)cc1)c1ccccc1Cl [Compound 15, N-[4-[[(6aS)-2-chloro-6,6a,7,8,9,10-hexahydro-7,10-ethanopyrido[2,1-c][1,4]benzodiazepin-5(12H)-yl]carbonyl]phenyl]-2-chloro-benzamide]	35	13	–
O=C(Nc1ccc(C(=O)N2C[C@@H]3C4CCC(CC4)N3Cc3ccccc32)c(Cl)c1)c1ccccc1-c1ccccc1 [Compound 13, N-[4-[[(6aS)-6,6a,7,8,9,10-hexahydro-7,10-ethanopyrido[2,1-c][1,4]benzodiazepin-5(12H)-yl]carbonyl]-3-chlorophenyl]-[1,1′-biphenyl]-2-carboxamide]	24	–	–
O=C(Nc1ccc(C(=O)N2C[C@@H]3C4CCC(C4)N3Cc3cc(Cl)ccc32)cc1)c1ccccc1F (stereo partly drawn) [Compound 10, N-[4-[[(6aS)-2-chloro-6,6a,7,8,9,10-hexahydro-7,10-methanopyrido[2,1-c][1,4]benzodiazepin-5(12H)-yl]carbonyl]phenyl]-2-fluoro-benzamide]	10	5	–
